Test results published in US10987430B2, “Di-substituted maleic amide linker for antibody drug conjugating and preparation method and use thereof” (Mabwell (shanghai) Bioscience Co., Ltd., priority 2016, dated 2021).
Blank lines part the entries; values can stand above or below the substance they belong to.

Columns and labels:
[1] = tested on: human gastric cancer NCI-N87 subcutaneous xenografts; assay: In vivo anti-tumor efficacy assay (FIG. 10), IV once a week, 2 times in total; parameters: species or system BALB/cA-nude mice; details: 1 mg/kg
Description: (§1) 6-7 weeks BALB/cA-nude mice (♀) were purchased from Shanghai Lingchang Biotechnology Co., Ltd. Production license number: SCXK (Shanghai) 2013-0018; animal certificate number: 2013001815683; and feeding environment: SPF level.
Those nude mice were subcutaneously inoculated with human gastric cancer NCI-N87 cells, and then randomly divided into groups (D0) when tumors grew to 100-250 mm^3. Tumor volume was measured 2-3 times a week, the mice were weighed, and corresponding data were recorded. The tumor volume (V) was calculated as: V=½×a×b^2; in which a and b represent length and width respectively. T/C (%)=(T−T0)/(C−C0)×100, in which T and C represent the tumor volumes at the end of the experiment; T0 and C0 represent the tumor volumes at the beginning of the experiment.

[2] = tested on: human gastric cancer NCI-N87 subcutaneous xenografts; assay: In vivo anti-tumor efficacy assay (FIG. 24), IV on D 0; parameters: species or system BALB/cA-nude mice; details: 1.0 mg/kg
Description: as §1
Those nude mice were subcutaneously inoculated with 6×10^6 human gastric cancer NCI-N87 cells, and after the tumors grew to 100-250 mm^3, the mice were divided into groups (D0) according to tumor volumes. The mice were injected intravenously (IV), each with an administration volume 10 mL/kg; mice in vehicle control group was administered with the same volume of “vehicle” (physiological saline containing 0.1% BSA). Tumor volume was measured 2 times a week, the mice were weighed, and corresponding data were recorded.
The purpose of this experiment was to investigate the effect of the drugs on tumor growth using specific indicators T/C % or tumor growth inhibition value (TGI) (%).
Tumor diameters were measured twice a week with a vernier caliper. The tumor volume (V) was calculated as: V=½×a×b^2; in which a and b represent length and width respectively. T/C(%)=(T−T0)/(C−C0)×100, in which T and C represent the tumor volumes at the end of the experiment; T0 and C0 represent the tumor volumes at the beginning of the experiment. […]

[3] = tested on: NCI-N87 human gastric cancer cells; assay: SRB cell proliferation assay in vitro; assay type: cell-based
Text: (§2) Sulforhodamine B (SRB)-based colorimetric method was used in this Example to evaluate the anti-proliferative effect of the drugs. SRB is a pink anionic dye which is easily soluble in water and can specifically bind to basic amino acids making up proteins in cells under an acidic condition. It provides an absorption peak at 510 nm, and the absorbance is linearly and positively correlated with the amount of cells. In this regard, the method can be used in a quantitative detection of cell number.
(§3) BT-474, SK-BR-3 and NCI-N87 cells in RPMI 1640 medium containing 10% fetal bovine serum, SKOV-3, Du-145, Panc-1, MCF-7 and MDA-MB-231 cells in DMEM containing 10% fetal bovine serum, and MDA-MB-468 cells in DMEM/F12 containing 10% fetal bovine serum were incubated to logarithmic growth phase in a 5% CO2 incubator at 37° C. The above cells in the logarithmic growth phase were inoculated into 96-well plates at a density of 2×10^3 to 9×10^3 cells per well, 100 μL per well, cultured for 24 hours and then different concentrations of drugs were added thereto for 5 days. Specifically, each drug was prepared into nine concentrations by diluting in 3, 4 or 5-fold, each concentration was set in duplicate wells, and corresponding concentration of vehicle control wells and medium control wells without cells were set too. At the end of drug action, culture solutions were decanted, and 100 μl of a pre-cooled trichloroacetic acid solution (30%, w/v) at 4° C. was added to each well and the cells were fixed at 4° C. for 1 hour. Subsequently, the cells were washed with deionized water for 5 times, and dried at room temperature, and then 100 μL of 0.4% (w/v) SRB dye (Sigma, prepared with 1% glacial acetic acid) was added to each well. After being incubated and stained at room temperature for 30 minutes, the cells were washed with 1% glacial acetic acid for 4 times to remove unbound dyes, and then dried at room temperature. Afterwards, 100 μL of 10 mM Tris solution was added per well.
as §2, with “SRB is a pink anionic dye which is easily soluble in water and can specifically bind to basic amino acids making up proteins in cells under an acidic condition.” left out
(§4) The above cells in the logarithmic growth phase were inoculated into 96-well plates at a density of 2×10^3 to 9×10^3 cells per well, 100 μL per well, cultured for 24 hours and then different concentrations of drugs were added thereto for 5 days. […] At the end of drug action, culture solutions were decanted, and 100 μl of a pre-cooled trichloroacetic acid solution (30%, w/v) at 4° C. was added to each well and the cells were fixed at 4° C. for 1 hour.

[4] = tested on: BT-474 human breast cancer cells; assay: SRB cell proliferation assay in vitro; assay type: cell-based
Text: as §2, §3
as §2, with “SRB is a pink anionic dye which is easily soluble in water and can specifically bind to basic amino acids making up proteins in cells under an acidic condition.” left out
as §4

[5] = tested on: SK-BR-3 human breast cancer cells; assay: SRB cell proliferation assay in vitro; assay type: cell-based; details: SK-BR-3, Her2 highly expressing, 5 days, FIG. 4
Text: as §2
BT-474, SK-BR-3 and NCI-N87 cells in RPMI 1640 medium containing 10% fetal bovine serum, SKOV-3, Du-145, Panc-1, MCF-7 and MDA-MB-231 cells in DMEM containing 10% fetal bovine serum, and MDA-MB-468 cells in DMEM/F12 containing 10% fetal bovine serum were incubated to logarithmic growth phase in a 5% CO2 incubator at 37° C. The above cells in the logarithmic growth phase were inoculated into 96-well plates at a density of 2×10^3 to 9×10^3 cells per well, 100 μL per well, cultured for 24 hours and then different concentrations of drugs were added thereto for 5 days. Specifically, each drug was prepared into nine concentrations by diluting in 3, 4 or 5-fold, each concentration was set in duplicate wells, and corresponding concentration of vehicle control wells and medium control wells without cells were set too. […]

[6] = tested on: 18 human tumor cell lines; details: cited from earlier work

Substance: P-mcVC-MMAE: comparison Pertuzumab conjugate; traditional mcVC-PAB conjugate with MMAE
mice with tumors partially regressed [1]: 2/6
tumor inhibition rate [1]: 94%
% T/C D 23 [2]: 17%
% TGI D 23 [2]: 83%
Mean tumor volume (mm3) D 23 [2]: 194.6 mm3
Partial regression ([2]; number of mice, 6 per group): 3
complete regression ([2]; number of mice, 6 per group): 0
inhibition of tumor cell proliferation ([3]; NCI-N87, Her2 highly expressing, 5 days, FIG. 6, FIG. 9-1): significant inhibition of tumor cell proliferation
inhibition of tumor cell proliferation ([4]; BT-474, Her2 highly expressing, 5 days, FIG. 5): significant inhibition of tumor cell proliferation
inhibition of tumor cell proliferation [5]: significant inhibition of tumor cell proliferation

IC50 ([3]; NCI-N87, 120 h): >10 µg/mL
IC50 ([4]; BT-474, 120 h): >10 µg/mL
Substance: Pertuzumab: HER2 antibody, naked antibody

Substance: Taltobulin
IC50 [6]: 2.5 nM
